Test results reported in patent publication US10208045B2, “Aza-pyridone compounds and uses thereof” (Alios BioPharma, Inc., priority 2015, dated 2019).

Legend:
[1] = target: Full length EN PA (influenza endonuclease) (Influenza A virus, UniProt P15659); assay: EN PA FRET inhibition assay; format: biochemical; settings: 50 Nm FRET probe, mean of a minimum of two independent experiments, read-out: Potency (IC50 class)
[2] = system: Influenza strain A549_A/WSN/33 (H1N1); assay: Influenza antiviral assay (neuraminidase fluorescence readout in A549 or MDCK cells); format: cell-based; settings: Influenza A virus, read-out: % Inhibition (EC50 class)

Row | SMILES | IC50 [1] [nM] | EC50 [2] [nM]
1 | CC(C)N1C[C@H]([C@@H](c2ccccc2)n2cc(C#CC3CC3)c(C#CC3CC3)n2)n2ncc(=O)c(O)c2C1=O [Compound 33] | 250 to 1000 | < 20000
2 | CC(C)OC(=O)OCOc1c2n(ncc1=O)[C@@H](C1c3cccc(F)c3CCc3c(F)cccc31)CN(C(C)C)C2=O [Compound 41] | < 250 | < 20000
3 | CCCN1C[C@@H](C2c3cccc(F)c3CCc3c(F)cccc32)n2ncc(=O)c(O)c2C1=O [Compound 22] | ≥ 1000 | < 20000
4 | CC#Cc1cn([C@@H](c2ccccc2)[C@H]2CN(C)C(=O)c3c(O)c(=O)cnn32)nc1C#CC [Compound 12] | 250 to 1000 | < 20000
5 | O=C1c2c(O)c(=O)cnn2[C@@H](C(c2ccccc2)c2ccccc2)CN1Cc1ccccc1 [Compound 38] | < 250 | < 20000
6 | CCCCN1C[C@H](C(c2ccccc2)c2ccccc2)n2ncc(=O)c(O)c2C1=O [Compound 18] | < 250 | < 20000
7 | CCCN1C[C@H](C2c3cccc(F)c3CCc3c(F)cccc32)n2ncc(=O)c(O)c2C1=O [Compound 21] | < 250 | < 20000
8 | CCCN1C[C@H](C(c2cccc(Cl)c2)c2cccc(Cl)c2)n2ncc(=O)c(OC(C)=O)c2C1=O [Compound 54] | < 250 | < 20000
9 | CCCN1C[C@H](C2c3ccccc3CCc3ccccc32)n2ncc(=O)c(O)c2C1=O [Compound 19] | < 250 | < 20000
10 | CCCN1C[C@H](C2c3cccc(Cl)c3CCc3c(Cl)cccc32)n2ncc(=O)c(O)c2C1=O [Compound 99] | < 250 | < 20000
11 | CCCN1C[C@H](C2c3ccccc3CCc3ccccc32)n2ncc(=O)c(OC(=O)C(C)C)c2C1=O [Compound 26] | < 250 | < 20000
12 | CN1C[C@H]([C@H](c2ccccc2)n2cc(I)c(I)n2)n2ncc(=O)c(O)c2C1=O [Compound 8] | < 250 | < 20000
13 | CCCN1C[C@@H](C2c3ccccc3CCc3ccccc32)n2ncc(=O)c(O)c2C1=O [Compound 20] | 250 to 1000 | < 20000
14 | CC(C)N1C[C@H](C(c2ccccc2)c2ccccc2)n2ncc(=O)c(O[C@@H]3OC(C(=O)O)[C@@H](O)C(O)C3O)c2C1=O (stereo partly drawn) [Compound 4] | < 250 | < 20000
15 | CCCN1C[C@H](C(c2cccc(F)c2)c2cccc(F)c2)n2ncc(=O)c(OC(C)=O)c2C1=O (single isomer, unassigned) [Compound 1] | < 250 | < 20000
16 | CN1C[C@H]([C@H](c2ccccc2)n2cc(C#CCO)c(C#CCO)n2)n2ncc(=O)c(O)c2C1=O [Compound 36] | < 250 | < 20000
17 | CC(C)OC(=O)Oc1c2n(ncc1=O)[C@@H](C1c3cccc(F)c3CCc3c(F)cccc31)CN(C(C)C)C2=O [Compound 30] | < 250 | < 20000
18 | CCCN1C[C@H](C2c3ccc(F)cc3CCc3cc(F)ccc32)n2ncc(=O)c(O)c2C1=O [Compound 102] | < 250 | < 20000
19 | CC(C)N1C[C@H]([C@@H](c2ccccc2)n2cc(C#CCO)c(C#CCO)n2)n2ncc(=O)c(O)c2C1=O [Compound 34] | < 250 | < 20000
20 | CC(C)[C@H](N)C(=O)OCOc1c2n(ncc1=O)[C@@H](C1c3ccccc3CCc3ccccc31)CN(C(C)C)C2=O [Compound 40] | < 250 | < 20000
21 | CCn1cc([C@H](c2ccccc2)[C@H]2CN(C)C(=O)c3c(O)c(=O)cnn32)c2ccc(CO)cc21 [Compound 49] | ≥ 1000 | –
22 | CN1C[C@H](C2c3cccc(Cl)c3CCc3c(Cl)cccc32)n2ncc(=O)c(O)c2C1=O [Compound 100] | < 250 | < 20000
23 | O=C1NC[C@H](C(c2ccccc2)c2ccccc2)n2ncc(=O)c(O)c21 [Compound 10] | < 250 | < 20000
24 | CCCN1C[C@H](C2c3cccc(F)c3CCc3c(F)cccc32)n2ncc(=O)c(OC(C)=O)c2C1=O [Compound 29] | < 250 | < 20000
25 | CC(C)C(=O)Oc1c2n(ncc1=O)[C@@H](C1c3ccccc3CCc3ccccc31)CN(C(C)C)C2=O [Compound 23] | < 250 | < 20000
26 | CCN1C[C@H](C2c3ccccc3CCc3ccccc32)n2ncc(=O)c(OC(=O)C(C)C)c2C1=O [Compound 28] | < 250 | –

Row | SMILES | IC50 [1] [nM] | EC50 [2] [nM]
27 | CCn1cc([C@@H](c2ccccc2)[C@H]2CN(C)C(=O)c3c(O)c(=O)cnn32)c2ccc(Br)cc21 [Compound 6] | 250 to 1000 | < 20000
28 | C#Cc1cccc(C(c2cccc(C#C)c2)C2CN(C(C)C)C(=O)c3c(O)c(=O)cnn32)c1 (stereo not drawn) [Compound 11] | < 250 | < 20000
29 | CN1C[C@H]([C@@H](c2ccccc2)n2cc(C#CCO)c(C#CCO)n2)n2ncc(=O)c(O)c2C1=O (single isomer, unassigned) [Compound 14] | < 250 | < 20000
30 | [2H]C([2H])([2H])C([2H])(N1C[C@H](C(c2ccccc2)c2ccccc2)n2ncc(=O)c(O)c2C1=O)C([2H])([2H])[2H] [Compound 17] | < 250 | < 20000
31 | CC(C)[C@H](N)C(=O)OCOc1c2n(ncc1=O)[C@@H](C1c3cccc(F)c3CCc3c(F)cccc31)CN(C(C)C)C2=O [Compound 39] | < 250 | < 20000
32 | CC(=O)Oc1c2n(ncc1=O)[C@@H](C1c3cccc(F)c3CCc3c(F)cccc31)CN(C(C)C)C2=O [Compound 3] | < 250 | < 20000
33 | CN1C[C@H]([C@H](c2ccccc2)n2cc(C#CC3CC3)c(C#CC3CC3)n2)n2ncc(=O)c(O)c2C1=O [Compound 35] | ≥ 1000 | < 20000
34 | CC(C)OC(=O)OCOc1c2n(ncc1=O)[C@@H](C(c1ccccc1)c1ccccc1)CN(C(C)C)C2=O [Compound 2] | ≥ 1000 | < 20000
35 | Cc1cccc(C(c2cccc(C)c2)[C@H]2CN(C(C)C)C(=O)c3c(O)c(=O)cnn32)c1 [Compound 37] | < 250 | < 20000
36 | CN1C[C@H]([C@@H](c2ccccc2)n2cc(C#CC3CC3)c(C#CC3CC3)n2)n2ncc(=O)c(O)c2C1=O (single isomer, unassigned) [Compound 13] | < 250 | < 20000
37 | CC(C)N1C[C@H](C2c3ccc(F)cc3CCc3cc(F)ccc32)n2ncc(=O)c(O)c2C1=O [Compound 101] | < 250 | < 20000
38 | CC(=O)Oc1c2n(ncc1=O)[C@@H](C(c1cccc(Cl)c1)c1cccc(Cl)c1)CN(C(C)C)C2=O [Compound 107] | < 250 | < 20000
39 | CCCN1C[C@H](C2c3ccc(Cl)cc3CCc3cc(Cl)ccc32)n2ncc(=O)c(O)c2C1=O [Compound 104] | < 250 | < 20000
40 | CN1CC(C(c2ccccc2)c2cn(C)c3cc(F)ccc23)n2ncc(=O)c(O)c2C1=O (stereo not drawn) [Compound 5] | < 250 | < 20000
41 | CC(=O)Oc1c2n(ncc1=O)[C@@H](C1c3ccccc3CCc3ccccc31)CN(C(C)C)C2=O [Compound 24] | < 250 | < 20000
42 | C#Cc1cn([C@@H](c2ccccc2)[C@H]2CN(C)C(=O)c3c(O)c(=O)cnn32)nc1C#C [Compound 16] | < 250 | < 20000
43 | CCCN1C[C@H](C2c3ccccc3CCc3ccccc32)n2ncc(=O)c(OC(C)=O)c2C1=O [Compound 25] | < 250 | < 20000
44 | CC(C)N1C[C@H](C(c2cccs2)c2cccs2)n2ncc(=O)c(O)c2C1=O [Compound 9] | < 250 | < 20000
45 | C#Cc1cccc([C@@H](c2ccccc2)[C@H]2CN(C(C)C)C(=O)c3c(O)c(=O)cnn32)c1 [Compound 15] | < 250 | < 20000
46 | CC(C)COC(=O)Oc1c2n(ncc1=O)[C@@H](C1c3cccc(F)c3CCc3c(F)cccc31)CN(C(C)C)C2=O [Compound 31] | < 250 | < 20000
47 | CCn1cc([C@@H](c2ccccc2)[C@H]2CN(C)C(=O)c3c(O)c(=O)cnn32)c2ccc(CO)cc21 [Compound 48] | ≥ 1000 | –
48 | CN1C[C@H]([C@H](c2ccccc2)n2cc(C#CC3(O)CCC3)c(C#CC3(O)CCC3)n2)n2ncc(=O)c(O)c2C1=O [Compound 46] | 250 to 1000 | 20000 to 100000
49 | CN1C[C@H]([C@@H](c2ccccc2)n2cc(I)c(I)n2)n2ncc(=O)c(O)c2C1=O [Compound 7] | < 250 | < 20000
50 | CCN1C[C@H](C2c3ccccc3CCc3ccccc32)n2ncc(=O)c(OC(C)=O)c2C1=O [Compound 27] | < 250 | < 20000
51 | CC(C)N1C[C@H](C2c3ccc(Cl)cc3CCc3cc(Cl)ccc32)n2ncc(=O)c(O)c2C1=O [Compound 103] | < 250 | < 20000
